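Tested at 5 concentrations; 48 h exposure; 96-well plates; endpoints linearly interpolated, else capped at highest concentration. TGI is the concentration that stops growth completely.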
How the values were obtained:
Experiment in all cases: NCI-60 cell line screen, 48 h
A498 renal = system: A498 renal
ACHN renal = system: ACHN renal
CAKI-1 renal = system: CAKI-1 renal
DU-145 prostate = system: DU-145 prostate
HCT-15 colon = system: HCT-15 colon
MDA-MB-231 breast = system: MDA-MB-231 breast
MDA-MB-435 = system: MDA-MB-435
NCI-H226 lung = system: NCI-H226 lung
NCI-H460 lung = system: NCI-H460 lung
NCI-H522 lung = system: NCI-H522 lung
SF-268 CNS = system: SF-268 CNS
SF-539 CNS = system: SF-539 CNS
SNB-19 CNS = system: SNB-19 CNS
SW-620 colon = system: SW-620 colon
T-47D breast = system: T-47D breast
U251 CNS = system: U251 CNS
UACC-62 melanoma = system: UACC-62 melanoma

Row | Structure (SMILES) | TGI (A498 renal) [µM] | TGI (ACHN renal) [µM] | TGI (CAKI-1 renal) [µM] | TGI (DU-145 prostate) [µM] | TGI (HCT-15 colon) [µM] | TGI (MDA-MB-231 breast) [µM] | TGI (MDA-MB-435) [µM] | TGI (NCI-H226 lung) [µM] | TGI (NCI-H460 lung) [µM] | TGI (NCI-H522 lung) [µM] | TGI (SF-268 CNS) [µM] | TGI (SF-539 CNS) [µM] | TGI (SNB-19 CNS) [µM] | TGI (SW-620 colon) [µM] | TGI (T-47D breast) [µM] | TGI (U251 CNS) [µM] | TGI (UACC-62 melanoma) [µM]
1 | CN1C(=O)[C@@H]2N(CSC2(C)C)C1=S | > 100 | > 100 | > 100 | > 100 | > 100 | > 100 | > 100 | > 100 | > 100 | > 100 | > 100 | > 100 | > 100 | > 100 | > 100 | > 100 | > 100
2 | COc1ccc(N2C(=O)c3cccnc3S2(=O)=O)cc1 | > 100 | > 100 | > 100 | > 100 | > 100 | > 100 | > 100 | > 100 | > 100 | > 100 | > 100 | > 100 | > 100 | > 100 | > 100 | > 100 | > 100
3 | COc1ccccc1N1C(=O)CS(=O)(=O)C1c1cccc(Oc2ccccc2)c1 (stereo not given) | 34.6 | 33.7 | 64.3 | 71.2 | 36.2 | 30.7 | 22.2 | 31.8 | 29.4 | 29.3 | 33.1 | 32.6 | 38.7 | 82.8 | 48.3 | 29.7 | 25.3
4 | NCCCCN(CCCN)Cc1ccccc1 | > 100 | > 100 | > 100 | > 100 | > 100 | > 100 | > 100 | > 100 | > 100 | > 100 | > 100 | > 100 | > 100 | > 100 | > 100 | > 100 | > 100
5 | Nc1nc(Cl)cc(NCC2(CO)CCC(O)C2)n1 (stereo not given) | > 100 | > 100 | > 100 | > 100 | > 100 | > 100 | > 100 | > 100 | > 100 | > 100 | > 100 | > 100 | > 100 | > 100 | > 100 | > 100 | > 100
